The values that follow come from ChEMBL document CHEMBL1134858, “Identification of a novel 1'-[5-((3,5-dichlorobenzoyl)methylamino)-3-(3,4-dichlorophenyl)-4-(methoxyimino)pentyl]-2-oxo-(1,4'-bipiperidine) as a dual NK(1)/NK(2) antagonist” (Bioorg Med Chem Lett, 2002).

One test has as its target T1, Substance-K receptor (Cavia porcellus, UniProt Q64077).
T1 sequence (Q64077 whole entry): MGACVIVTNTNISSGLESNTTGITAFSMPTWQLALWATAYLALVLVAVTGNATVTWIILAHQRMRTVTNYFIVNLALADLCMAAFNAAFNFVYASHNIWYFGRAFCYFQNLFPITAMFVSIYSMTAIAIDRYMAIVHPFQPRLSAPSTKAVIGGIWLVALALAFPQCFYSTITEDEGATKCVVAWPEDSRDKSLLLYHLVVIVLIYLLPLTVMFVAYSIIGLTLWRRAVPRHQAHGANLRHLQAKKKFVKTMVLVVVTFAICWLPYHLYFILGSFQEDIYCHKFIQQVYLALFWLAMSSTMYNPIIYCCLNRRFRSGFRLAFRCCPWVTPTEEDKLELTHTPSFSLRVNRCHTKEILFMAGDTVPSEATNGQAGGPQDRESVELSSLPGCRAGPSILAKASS
As to the kind of experiment: In vitro binding to Tachykinin receptor 2.
Details: not given
As usually defined, the Ki is the equilibrium dissociation constant of an inhibitor or competing ligand from its target. A lower Ki goes with higher affinity. Molecule `CO/N=C(\CN(C)C(=O)c1cc(Cl)cc(Cl)c1)C(CCN1CCC(N2CCCC(CC(=O)N3CC(O)C3)C2=O)CC1)c1ccc(Cl)c(Cl)c1` (stereo not given) came in with a Ki of 2 nM.

Take `CO/N=C(\CN(C)C(=O)c1cc(Cl)cc(Cl)c1)[C@@H](CCN1CCC(N2CCCC(CC(=O)N3CCOCC3)C2=O)CC1)c1ccc(Cl)c(Cl)c1` (stereo not given in full): the Ki was determined as 0.8 nM.

With `CO/N=C(\CN(C)C(=O)c1cc(Cl)cc(Cl)c1)C(CCN1CCC(N2CCCC(CC(N)=O)C2=O)CC1)c1ccc(Cl)c(Cl)c1` (stereo not given), the Ki stood at 3 nM.

Molecule `CO/N=C(\CN(C)C(=O)c1cc(Cl)cc(Cl)c1)[C@@H](CCN1CCC(N2CCCC(CC(=O)N(C)C)C2=O)CC1)c1ccc(Cl)c(Cl)c1` (stereo not given in full) yielded a Ki of 0.3 nM. Compared with the last molecule, the Ki is about 10-fold lower.

Take `CO/N=C(\CN(C)C(=O)c1cc(Cl)cc(Cl)c1)C(CCN1CCC(N2CCCC(CC(=O)N(C)C)C2=O)CC1)c1ccc(Cl)c(Cl)c1` (stereo not given): the Ki stood at 1 nM. Against the preceding molecule, the Ki is about 3.3-fold higher.

The molecule `CO/N=C(\CN(C)C(=O)c1cc(Cl)cc(Cl)c1)[C@@H](CCN1CCC(N2CCCC(CC(=O)N3CC(O)C3)C2=O)CC1)c1ccc(Cl)c(Cl)c1` (stereo not given in full) came in with a Ki of 0.6 nM.

As for `CO/N=C(\CN(C)C(=O)c1cc(Cl)cc(Cl)c1)C(CCN1CCC(N2CCCC(CC(=O)N3CCOCC3)C2=O)CC1)c1ccc(Cl)c(Cl)c1` (stereo not given), affinity was put at a Ki of 1 nM.

`CO/N=C(\CN(C)C(=O)c1cc(Cl)cc(Cl)c1)[C@@H](CCN1CCC(N2CCCC(CC(N)=O)C2=O)CC1)c1ccc(Cl)c(Cl)c1` (stereo not given in full) had an inhibitory constant (Ki) of 0.3 nM. This Ki lies about 3.3-fold lower than the previous one.

Turning to `CNC(=O)CC1CCCN(C2CCN(CCC(/C(CN(C)C(=O)c3cc(Cl)cc(Cl)c3)=N/OC)c3ccc(Cl)c(Cl)c3)CC2)C1=O` (stereo not given), the inhibitory constant (Ki) came to 2 nM.

For the next test, the target named is T2, Substance-P receptor (Cavia porcellus, UniProt P30547). As to the kind of experiment: In vitro binding to Tachykinin receptor 1.
T2 sequence (P30547 whole entry): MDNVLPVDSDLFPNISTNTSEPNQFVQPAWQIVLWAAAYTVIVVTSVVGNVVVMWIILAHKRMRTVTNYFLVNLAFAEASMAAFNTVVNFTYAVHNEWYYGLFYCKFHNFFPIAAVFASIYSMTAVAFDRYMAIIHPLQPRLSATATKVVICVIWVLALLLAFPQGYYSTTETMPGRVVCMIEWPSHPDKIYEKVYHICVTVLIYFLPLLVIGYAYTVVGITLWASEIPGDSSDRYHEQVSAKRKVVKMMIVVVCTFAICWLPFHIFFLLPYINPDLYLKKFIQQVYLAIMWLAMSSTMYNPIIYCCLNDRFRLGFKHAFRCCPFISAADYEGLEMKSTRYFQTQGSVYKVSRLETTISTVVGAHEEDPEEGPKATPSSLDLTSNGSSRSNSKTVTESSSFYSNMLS
Details: not given
Molecule `CO/N=C(\CN(C)C(=O)c1cc(Cl)cc(Cl)c1)C(CCN1CCC(N2CCCC(CC(=O)N3CC(O)C3)C2=O)CC1)c1ccc(Cl)c(Cl)c1` (stereo not given) gave a Ki of 3 nM.

`CO/N=C(\CN(C)C(=O)c1cc(Cl)cc(Cl)c1)[C@@H](CCN1CCC(N2CCCC(CC(=O)N3CCOCC3)C2=O)CC1)c1ccc(Cl)c(Cl)c1` (stereo not given in full) displayed a Ki of 0.8 nM. Against the preceding molecule, the Ki is about 3.8-fold lower.

`CO/N=C(\CN(C)C(=O)c1cc(Cl)cc(Cl)c1)C(CCN1CCC(N2CCCC(CC(N)=O)C2=O)CC1)c1ccc(Cl)c(Cl)c1` (stereo not given) gave an inhibition constant (Ki) of 2 nM.

As to `CO/N=C(\CN(C)C(=O)c1cc(Cl)cc(Cl)c1)[C@@H](CCN1CCC(N2CCCC(CC(=O)N(C)C)C2=O)CC1)c1ccc(Cl)c(Cl)c1` (stereo not given in full), the affinity, expressed as Ki, was 0.8 nM.

Regarding `CO/N=C(\CN(C)C(=O)c1cc(Cl)cc(Cl)c1)C(CCN1CCC(N2CCCC(CC(=O)N(C)C)C2=O)CC1)c1ccc(Cl)c(Cl)c1` (stereo not given), affinity was put at a Ki of 1 nM. This Ki and that of the molecule before are within 1.5-fold of each other.

Molecule `CO/N=C(\CN(C)C(=O)c1cc(Cl)cc(Cl)c1)[C@@H](CCN1CCC(N2CCCC(CC(=O)N3CC(O)C3)C2=O)CC1)c1ccc(Cl)c(Cl)c1` (stereo not given in full) registered an inhibition constant (Ki) of 1.1 nM.

`CO/N=C(\CN(C)C(=O)c1cc(Cl)cc(Cl)c1)C(CCN1CCC(N2CCCC(CC(=O)N3CCOCC3)C2=O)CC1)c1ccc(Cl)c(Cl)c1` (stereo not given) yielded an inhibition constant Ki of 1 nM. This Ki and that of the molecule before are within 1.5-fold of each other.

`CO/N=C(\CN(C)C(=O)c1cc(Cl)cc(Cl)c1)[C@@H](CCN1CCC(N2CCCC(CC(N)=O)C2=O)CC1)c1ccc(Cl)c(Cl)c1` (stereo not given in full) returned an inhibition constant Ki of 0.4 nM. Compared with the last molecule, the Ki is about 2.5-fold lower.

Molecule `CNC(=O)CC1CCCN(C2CCN(CCC(/C(CN(C)C(=O)c3cc(Cl)cc(Cl)c3)=N/OC)c3ccc(Cl)c(Cl)c3)CC2)C1=O` (stereo not given) came in with a Ki of 2 nM.

The target in a further test is T1, Substance-K receptor. As to the kind of experiment: In vitro functional NK2 activity as inhibition of guinea pig bronchoconstriction. It is filed as tissue-based, Lung. As to conditions: read-out: pA2 (converted).
`CO/N=C(\CN(C)C(=O)c1cc(Cl)cc(Cl)c1)C(CCN1CCC(N2CCCC(CC(=O)N3CC(O)C3)C2=O)CC1)c1ccc(Cl)c(Cl)c1` (stereo not given): the Kb was 25.1 nM.

Consider `CO/N=C(\CN(C)C(=O)c1cc(Cl)cc(Cl)c1)[C@@H](CCN1CCC(N2CCCC(CC(=O)N3CCOCC3)C2=O)CC1)c1ccc(Cl)c(Cl)c1` (stereo not given in full), for which the Kb was 126 nM.

As for `CO/N=C(\CN(C)C(=O)c1cc(Cl)cc(Cl)c1)C(CCN1CCC(N2CCCC(CC(N)=O)C2=O)CC1)c1ccc(Cl)c(Cl)c1` (stereo not given), the Kb is 100 nM.

For `CO/N=C(\CN(C)C(=O)c1cc(Cl)cc(Cl)c1)[C@@H](CCN1CCC(N2CCCC(CC(=O)N(C)C)C2=O)CC1)c1ccc(Cl)c(Cl)c1` (stereo not given in full), the Kb was 39.8 nM.

With `CO/N=C(\CN(C)C(=O)c1cc(Cl)cc(Cl)c1)C(CCN1CCC(N2CCCC(CC(=O)N(C)C)C2=O)CC1)c1ccc(Cl)c(Cl)c1` (stereo not given), the Kb is 63.1 nM.

As to `CO/N=C(\CN(C)C(=O)c1cc(Cl)cc(Cl)c1)C(CCN1CCC(N2CCCC(CC(=O)N3CCOCC3)C2=O)CC1)c1ccc(Cl)c(Cl)c1` (stereo not given), the Kb was 50.1 nM.

As to `CO/N=C(\CN(C)C(=O)c1cc(Cl)cc(Cl)c1)[C@@H](CCN1CCC(N2CCCC(CC(N)=O)C2=O)CC1)c1ccc(Cl)c(Cl)c1` (stereo not given in full), the Kb was 50.1 nM.

On to `CNC(=O)CC1CCCN(C2CCN(CCC(/C(CN(C)C(=O)c3cc(Cl)cc(Cl)c3)=N/OC)c3ccc(Cl)c(Cl)c3)CC2)C1=O` (stereo not given), for which the Kb was 50.1 nM.

A further test addresses T1, Substance-K receptor. As to the kind of experiment: […] is characterized by the compound ability to inhibit guinea pig bronchoconstriction. It is filed as functional, Lung. As to conditions: read-out: pA2 (converted).
Take `CO/N=C(\CN(C)C(=O)c1cc(Cl)cc(Cl)c1)[C@@H](CCN1CCC(N2CCCC(CC(=O)N3CC(O)C3)C2=O)CC1)c1ccc(Cl)c(Cl)c1` (stereo not given in full): the Kb was 501 nM.

In the next test the target is T2, Substance-P receptor. As to the kind of experiment: In vitro functional NK1 activity as inhibition of guinea pig bronchoconstriction. As to conditions: read-out: pA2 (converted). It is filed as tissue-based, Lung.
With `CO/N=C(\CN(C)C(=O)c1cc(Cl)cc(Cl)c1)[C@@H](CCN1CCC(N2CCCC(CC(=O)N3CCOCC3)C2=O)CC1)c1ccc(Cl)c(Cl)c1` (stereo not given in full), the Kb is 6.31 nM.

As for `CO/N=C(\CN(C)C(=O)c1cc(Cl)cc(Cl)c1)[C@@H](CCN1CCC(N2CCCC(CC(=O)N(C)C)C2=O)CC1)c1ccc(Cl)c(Cl)c1` (stereo not given in full), the Kb was 10 nM.

For `CO/N=C(\CN(C)C(=O)c1cc(Cl)cc(Cl)c1)[C@@H](CCN1CCC(N2CCCC(CC(N)=O)C2=O)CC1)c1ccc(Cl)c(Cl)c1` (stereo not given in full), the Kb is 20 nM.
